Laboratory results: ChEMBL document CHEMBL5604062, “ASAP - ZIKV NS2B-NS3 protease fluorescence dose response” (2024)
“And” between values parts separate entries of the source, which are not always exact repeats. Identical values can stand only once.

target: Nonstructural protein 3 (Zika virus, UniProt A0A024AXB9); experiment: Functional biochemical assay to identify treatments for viral infectious disease that targets Zika NS2B-NS3 protease. Utilizing a direct enzyme activity measurement method, reading the fluorescence intensity is used to characterize the relative potency of inhibitors as IC50.; set-up: species or system PRVABC59
Sequence (A0A024AXB9 whole entry): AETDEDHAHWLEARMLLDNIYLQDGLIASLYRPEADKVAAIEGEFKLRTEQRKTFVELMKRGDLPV

| Structure (SMILES) | IC50 |
| --- | --- |
| CNC(=O)C[C@H](Nc1ccccn1)c1cc(Cl)cc(Br)c1 | > 99.5 µM |
| CCn1c(=O)c(N2CC[C@H](CO)C2)nc2ccc(C(=O)N(C)C)cc21 | > 99.5 µM |
| O=C(Nc1cc(Cl)cc(C(=O)Nc2cccc([C@H]3C[C@H]3C(=O)O)c2)c1)OCc1ccccc1 | 62.1 µM and 77.7 µM and 77.6 µM |
| CS(=O)(=O)c1cc(CN)cc(NC(=O)c2cc(Cl)cc(NC(=O)OCc3ccccc3)c2)c1 | 23.3 µM |
| O=C(O)COc1cccc(NC(=O)c2cc(Cl)cc(NC(=O)OCc3ccccc3)c2)c1 | > 99.5 µM |
| O=C1NC[C@H](c2ccc(OCc3ccccc3)c(Br)c2)N1C(=O)OCc1ccccc1 | > 99.5 µM |
| CCn1c(=O)c(N2CC[C@H](CO)C2)nc2cc(C(=O)O)ccc21 | > 99.5 µM |
| NCCNS(=O)(=O)c1ccc(NC(=O)c2cc(Cl)cc(NC(=O)OCc3ccccc3)c2)cc1 | 10.9 µM |
| CCn1c(=O)c(N2CC[C@H](CO)C2)nc2ccc(C(=O)NCc3ccccc3)cc21 | > 99.5 µM |
| CN(C)CCc1ccc(NC(=O)c2cc(Cl)cc(NC(=O)OCc3ccccc3)c2)cc1 | 44.5 µM |
| N#CCc1cccc(NC(=O)c2cc(Cl)cc(NC(=O)OCc3ccccc3)c2)c1 | > 99.5 µM |
| CCn1c(=O)c(N2CC[C@H](CO)C2)nc2cc(C(=O)N(C)C)ccc21 | > 99.5 µM |
| CC(C)(C)OC(=O)NCc1ccc(I)c(NC(=O)c2cc(Cl)cc(NC(=O)OCc3ccccc3)c2)c1 | > 99.5 µM |
| O=C(Nc1cc(Cl)cc(C(=O)Nc2ccc(CCN3CCOCC3)cc2)c1)OCc1ccccc1 | > 99.5 µM |
| CCn1c(=O)c(N2CC[C@H](CO)C2)nc2cc(C(=O)NS(C)(=O)=O)ccc21 | > 99.5 µM |
| CCNC(=O)c1ccc2nc(N3CC[C@H](CO)C3)c(=O)n(CC)c2c1 | > 99.5 µM |
| CS(=O)(=O)Nc1cccc(NC(=O)c2cc(Cl)cc(NC(=O)OCc3ccccc3)c2)c1 | > 99.5 µM |
| CCn1c(=O)c(N2CC[C@H](CO)C2)nc2cc(C(=O)NCc3ccccc3)ccc21 | > 99.5 µM |
| CN(C)CC[C@H](NC(=O)c1cc(Cl)cc(NC(=O)OCc2ccccc2)c1)c1ccccc1 | > 99.5 µM |
| CS(=O)(=O)c1ccc(NC(=O)c2cc(Cl)cc(NC(=O)OCc3ccccc3)c2)cc1 | > 99.5 µM |
| CCOc1cccc(-c2ccc(NS(=O)(=O)c3cc(F)c(Cl)cc3C(=O)O)cc2)c1 | 21.8 µM |
| CS(=O)(=O)c1cccc(NC(=O)c2cc(Cl)cc(NC(=O)OCc3ccccc3)c2)c1 | > 99.5 µM |
| C[C@H]1CNC[C@@H]1c1ccc(NC(=O)c2cc(Cl)cc(NC(=O)OCc3ccccc3)c2)cc1 | 7.26 µM |
| CCn1c(=O)c(N2CC[C@@H](CO)C2)nc2ccc(C(=O)O)cc21 | > 99.5 µM |
| CNC(=O)C[C@H](Nc1ccccn1)c1cc(Cl)cc(CN)c1 | > 99.5 µM |
| CCNC(=O)c1ccc2c(c1)nc(N1CC[C@H](CO)C1)c(=O)n2CC | > 99.5 µM |
| O=C(Nc1cc(Cl)cc(C(=O)Nc2ccc([C@]34CNC[C@H]3C4)cc2)c1)OCc1ccccc1 | 21.2 µM |
| C[C@H]1Oc2ccc(NC(=O)c3cc(Cl)cc(NC(=O)OCc4ccccc4)c3)cc2NC1=O | > 99.5 µM |
| CCn1c(=O)c(N2CC[C@H](CO)C2)nc2ccc(C(=O)OC)cc21 | > 99.5 µM |
| CN1CCc2c(cccc2NC(=O)c2cc(Cl)cc(NC(=O)OCc3ccccc3)c2)C1 | > 99.5 µM |

Other lines, results leading:

| IC50 | Structure (SMILES) |
| --- | --- |
| 61.6 µM | Cc1cc(C(=O)Nc2cccc(CN)c2)c2cnn(-c3ccc(F)cc3)c2n1 |
| 5.55 µM | NCc1cccc(NC(=O)c2cc(Cl)cc(Cl)c2)c1 |
| 20 µM | CC(C)c1cc(NC(=O)OCc2ccccc2)cc(C(=O)Nc2cccc(CN)c2)c1 |
| 7.99 µM | CN(C)Cc1cc(Cl)cc(C(=O)Nc2cccc(CN)c2)c1 |
| 50.6 µM | NCc1ccc(I)c(NC(=O)c2cc(Cl)cc(NC(=O)OCc3ccccc3)c2)c1 |
| 22.1 µM | NCc1cccc(NC(=O)c2cc(NC(=O)OCc3ccccc3)cc(C3CC3)c2)c1 |
| > 99.5 µM | C[C@H]1CN(C)C[C@@H](C(=O)Nc2cccc(CN)c2)O1 |
| 10.2 µM | Cc1cc(NC(=O)OCc2ccccc2)cc(C(=O)Nc2cccc(CN)c2)c1 |
| > 99.5 µM | CNC(=O)[C@H](Nc1cccc(N)n1)c1cc(Cl)cc(CN)c1 |
| > 99.5 µM | C[C@H]1C[C@@H](C(=O)Nc2cccc(CN)c2)CC(=O)N1 |
| 11.8 µM | CSC1(C(=O)N[C@H](CC(=O)Nc2cccc(CN)c2)c2ccc(OCc3ccccc3)c(Br)c2)CCC1 |
| > 99.5 µM | O=Cc1cc(Cl)cc(NC(=O)OCc2ccccc2)c1 |
| > 99.5 µM | NCc1cccc(NC(=O)C2CCNCC2)c1 |
| 16.7 µM | NCc1cc(Br)cc(NC(=O)c2cc(Cl)cc(NC(=O)OCc3ccccc3)c2)c1 |
| > 99.5 µM | CC1(C)CCC(F)(F)C[C@H]1C(=O)Nc1cccc(CN)c1 |
| > 99.5 µM | CCn1ncc2c(C(=O)Nc3cccc(CN)c3)cc(C)nc21 |
| 6.02 µM | O=C(Nc1cc(Cl)cc(C(=O)Nc2ccc(C3CCNCC3)cc2)c1)OCc1ccccc1 |
| > 99.5 µM | O=C(Nc1cc(Cl)cc(C(=O)Nc2cccc(CN3CCCC3=O)c2)c1)OCc1ccccc1 |
| 15.2 µM | O=C(Nc1cc(Cl)cc(C(=O)Nc2ccc3c(c2)OCCNC3)c1)OCc1ccccc1 |
| 14.6 µM | NCc1cccc(NC(=O)c2cc(NC(=O)OCc3ccccc3)cc(C(F)(F)F)c2)c1 |
| > 99.5 µM | COc1ccc2nc(C)cc(C(=O)Nc3cccc(CN)c3)c2c1 |
| 48.5 µM | NCc1cccc(NC(=O)c2cncc(Cl)c2)c1 |
| > 99.5 µM | CNC(=O)[C@H](Nc1ccccn1)c1cc(Cl)cc(CN)c1 |

| IC50 | Structure (SMILES) |
| --- | --- |
| > 99.5 µM | Cc1cc(C(=O)Nc2cccc(CN)c2)c2sc(N)nc2n1 |
| > 99.5 µM | Cc1cc(C(=O)Nc2cccc(CN)c2)c2c(C)n[nH]c2n1 |
| > 99.5 µM | Cc1cc(C(=O)Nc2cccc(CN)c2)cc(NCc2cnn(C)c2)n1 |
| 15.7 µM | O=C(Nc1cc(Cl)cc(C(=O)Nc2ccc(N3CCNCC3)c(F)c2)c1)OCc1ccccc1 |
| 7.58 µM | O=C(Nc1ccc2c(c1)CNC2)c1cc(O)nc(C2CC2)c1 |
| 5.01 µM | N[C@H]1CC[C@H](c2ccc(NC(=O)c3cc(Cl)cc(NC(=O)OCc4ccccc4)c3)cc2)C1 |
| 6.83 µM | Cc1cc(C(=O)N[C@H](CC(=O)Nc2cccc(CN)c2)c2ccc(OCc3ccccc3)c(Br)c2)sn1 |
| 6.67 µM | NCc1cc(NC(=O)c2cc(Cl)cc(NC(=O)OCc3ccccc3)c2)cc(C2CC2)c1 |
| > 99.5 µM | CCc1cccc(NC(=O)[C@]2(Oc3ccc(Br)cc3)CCNC3(CC3)C2)c1 |
| > 99.5 µM | NCc1cccc(NC(=O)[C@H]2CCOC3(CCC3)C2)c1 |
| > 99.5 µM | C[C@H]1CN(Cc2ccccc2)C[C@@H](C(=O)Nc2cccc(CN)c2)O1 |
| > 99.5 µM | Cc1cc(Cl)cc(C(=O)Nc2cccc(CN)c2)n1 |
| > 99.5 µM | NCc1cccc(NC(=O)c2cc(Cl)cc(Cl)c2OCc2ccccc2)c1 |
| 5.99 µM | O=C(Nc1cc(Cl)cc(C(=O)Nc2ccc(C3CNC3)cc2)c1)OCc1ccccc1 |
| 48.7 µM | COC1(C(=O)N[C@H](CC(=O)Nc2cccc(CN)c2)c2ccc(OCc3ccccc3)c(Br)c2)CC1 |
| > 99.5 µM | COC(=O)[C@]12CC[C@](C(=O)Nc3cccc(CN)c3)(COC1)C2 |
| 15.4 µM | N#Cc1cc(NC(=O)OCc2ccccc2)cc(C(=O)Nc2cccc(CN)c2)c1 |
| > 99.5 µM | Cc1cc(C(=O)Nc2cccc(CN)c2)c2c(n1)CCCC2 |
| > 99.5 µM | Cc1[nH]c2ccc(Br)cc2c1CC(=O)Nc1cccc(CN)c1 |
| 3.4 µM | O=C(Nc1cc(Cl)cc(C(=O)Nc2ccc3c(c2)CNCC3)c1)OCc1ccccc1 |
| > 99.5 µM | NCc1cccc(NC(=O)[C@@H]2CCCCN2)c1 |
| > 99.5 µM | C[C@H]1C[C@@H](C(=O)Nc2cccc(CN)c2)CCO1 |
